{"source": "paper PMC7605213", "about": "(Journal of medicinal chemistry, 2020)", "key": {"[1]": {"system": "synchronized P. falciparum Dd2 cultures", "experiment": "Stage-specific action", "assay_type": "cell-based, Plasmodium falciparum", "details": "5 × EC50 (DHA 50 nM, atovaquone 6.6 nM) added at 6, 18, 30, 42 HPI"}, "[2]": {"system": "CQ-resistant Pf Dd2 strain", "experiment": "In vitro antiplasmodial activity, SYBR green I fluorescence, Dd2 strain", "assay_type": "cell-based, Plasmodium falciparum", "details": "for resistance index (RI): RI = Dd2 EC50/3D7 EC50; for activity against the Dd2 strain: aminoquinolines without the arylvinyl group; for EC50: read-out: EC50 against the Dd2 strain, CQ-resistant Pf Dd2, 72 h incubation"}, "[3]": {"system": "β-hematin crystal formation", "experiment": "β-Hematin formation inhibition", "assay_type": "biochemical", "details": "100 μM hemin, 16 h, 37 °C, highest concentration tested 200 μM"}, "[4]": {"details": "mouse liver microsomes, 15, 30 and 60 min, tentative assignment"}, "HepG2 cells": {"system": "HepG2 cells", "experiment": "In vitro cytotoxicity assay", "assay_type": "cell-based, human", "details": "SI = HepG2 EC50/Dd2 EC50"}, "[5]": {"system": "P. berghei ANKA strain expressing luciferase", "experiment": "In vivo antimalarial activity: elimination of existing infection", "set-up": "species or system Swiss-Webster female mice", "details": "25 mg/kg daily p.o., monophosphate salts, treatment from 48 h post infection"}}}
{"compound": "CN1CCN(CCNc2cc(/C=C/c3ccc(F)cc3)nc3ccc(Cl)cc23)CC1", "note": "[compound 86, (E)-6-Chloro-2-(4-fluorostyryl)-N-(2-(4-methylpiperazin-1-yl)-ethyl)quinolin-4-amine]", "values": [{"measurement": "stage-specific action on cell cycle progression", "setting": "[1]", "value": "stage-specific action at the late trophozoite phase"}, {"measurement": "fold more potent than analogue 95", "setting": "[2]; Dd2", "value": "~2.5", "unit": "fold"}, {"measurement": "inhibition of β-hematin formation", "setting": "[3]", "value": "showed inhibitory activity toward β-hematin formation in a concentration-dependent manner"}, {"measurement": "metabolites / metabolic pathway identified by LC–MS", "setting": "[4]", "value": "Demethylated (86-M1) and oxidized products (86-M2)"}]}
{"compound": "Fc1cnccc1/C=C/c1cc(NCCCCN2CCOCC2)c2cc(Cl)ccc2n1", "note": "[compound 109, (E)-6-Chloro-2-(2-(3-fluoropyridin-4-yl)vinyl)-N-(4-morpholinobutyl)quinolin-4-amine]", "values": [{"measurement": "fold less active than counterpart 93", "setting": "[2]; Dd2", "value": "~7.5", "unit": "fold"}]}
{"compound": "CN(C)CCNc1cc(/C=C/c2ccc(F)cc2)nc2ccc(Cl)cc12", "note": "[compound 29, (E)-N^1-(6-Chloro-2-(4-fluorostyryl)quinolin-4-yl)-N^2,N^2-dimethylethane-1,2-diamine]", "values": [{"measurement": "stage-specific action on cell cycle progression", "setting": "[1]", "value": "stage-specific action at the late trophozoite phase"}, {"measurement": "selectivity index (SI)", "setting": "HepG2 cells", "value": "> 1000"}, {"measurement": "inhibition of β-hematin formation", "setting": "[3]", "value": "showed inhibitory activity toward β-hematin formation in a concentration-dependent manner"}, {"measurement": "metabolites / metabolic pathway identified by LC–MS", "setting": "[4]", "value": "monodemethylated (29-M1), bi-demethylated (29-M2), and oxidized products (29-M3)"}]}
{"compound": "C[C@H]1[C@@H](O)O[C@@H]2O[C@@]3(C)CC[C@H]4[C@H](C)CC[C@@H]1[C@@]24OO3", "note": "[DHA, dihydroartemisinin, reference compound]", "values": [{"measurement": "stage-specific action on cell cycle progression", "setting": "[1]", "value": "inhibition of all stages"}]}
{"compound": "COc1ccc(/C=C/c2cc(NCCN(C)C)c3cc(F)ccc3n2)cc1OC", "note": "[compound 20, (E)-N^1-(2-(3,4-Dimethoxystyryl)-6-fluoroquinolin-4-yl)-N^2,N^2-dimethylethane-1,2-diamine]", "values": [{"measurement": "fold improved activity compared to compound 13", "setting": "[2]; Dd2", "value": "approximately 4.5 fold"}]}
{"compound": "CN(C)CCNc1cc(/C=C/c2ccc(N(C)C)cc2)nc2ccc(Cl)cc12", "note": "[compound 28, (E)-N^1-(6-Chloro-2-(4-(dimethylamino)styryl)quinolin-4-yl)-N^2,N^2-dimethylethane-1,2-diamine]", "values": [{"measurement": "resistance index (RI)", "setting": "[2]", "value": 1.3}]}
{"compound": "CN1CCN(CCNc2cc(/C=C/c3ccc(F)cc3)nc3ccc(Cl)cc23)CC1.O=P(O)(O)O", "note": "[86s, (E)-6-Chloro-2-(4-fluorostyryl)-N-(2-(4-methylpiperazin-1-yl)-ethyl)quinolin-4-amine Monophosphate Salt]", "values": [{"measurement": "effect on malaria infection (bioluminescence day 7)", "setting": "[5]", "value": "ineffective"}]}
{"compound": "COc1ccc2nc(/C=C/c3ccccc3)cc(NCCN(C)C)c2c1", "note": "[compound 8, (E)-N^1-(6-Methoxy-2-styrylquinolin-4-yl)-N^2,N^2-dimethylethane-1,2-diaminei]", "values": [{"measurement": "resistance index (RI)", "setting": "[2]", "value": "≥ 1.5"}]}
{"compound": "CN(C)CCNc1cc(/C=C/c2ccc(F)cc2)nc2ccc(Cl)cc12.O=P(O)(O)O", "note": "[29s, (E)-N^1-(6-Chloro-2-(4-fluorostyryl)quinolin-4-yl)-N^2,N^2-dimethylethane-1,2-diamine Monophosphate Salt]", "values": [{"measurement": "effect on malaria infection (bioluminescence day 7)", "setting": "[5]", "value": "effectively cleared the parasites"}]}
{"compound": "O=C1C(O)=C([C@H]2CC[C@H](c3ccc(Cl)cc3)CC2)C(=O)c2ccccc21", "note": "[atovaquone, reference compound]", "values": [{"measurement": "stage-specific action on cell cycle progression", "setting": "[1]", "value": "no inhibition in late stages"}]}
{"compound": "COc1ccc2nc(/C=C/c3ccncc3)cc(NCCN(C)C)c2c1", "note": "[compound 41, (E)-N^1-(6-Methoxy-2-(2-(pyridin-4-yl)vinyl)quinolin-4-yl)-N^2,N^2-dimethylethane-1,2-diamine]", "values": [{"measurement": "fold activity difference versus 2-pyridyl isomer 42", "setting": "[2]; Dd2", "value": "up to 30 fold"}]}
{"compound": "COc1ccc2nc(/C=C/c3cc(OC)c(OC)c(OC)c3)cc(NCCN(C)C)c2c1", "note": "[compound 14, (E)-N^1-(6-Methoxy-2-(3,4,5-trimethoxystyryl)quinolin-4-yl)-N^2,N^2-dimethylethane-1,2-diamine]", "values": [{"measurement": "resistance index (RI)", "setting": "[2]", "value": "≥ 1.5"}]}
{"compound": "CN(C)CCNc1cc(/C=C/c2ccncc2)nc2ccc(Cl)cc12", "note": "[compound 50, (E)-N^1-(6-Chloro-2-(2-(pyridin-4-yl)vinyl)quinolin-4-yl)-N^2,N^2-dimethylethane-1,2-diamine]", "values": [{"measurement": "resistance index (RI)", "setting": "[2]", "value": "< 1"}]}
{"compound": "FC(F)(F)c1ccc(/C=C/c2cc(NCCCCN3CCOCC3)c3cc(Cl)ccc3n2)cc1", "note": "[compound 98, (E)-6-Chloro-N-(4-morpholinobutyl)-2-(4-(trifluoromethyl)-Styryl)quinolin-4-amine]", "values": [{"measurement": "metabolites / metabolic pathway identified by LC–MS", "setting": "[4]", "value": "breakage of the morpholine ring"}]}
{"compound": "Fc1ccc(/C=C/c2cc(NCCCCN3CCOCC3)c3cc(Cl)ccc3n2)c(F)c1", "note": "[compound 104, (E)-6-Chloro-2-(2,4-difluorostyryl)-N-(4-morpholinobutyl)-quinolin-4-amine]", "values": [{"measurement": "fold more active than 103", "setting": "[2]; Dd2", "value": "~2.5", "unit": "fold"}]}
{"compound": "COc1ccc2nc(/C=C/c3ccc(OC)c(OC)c3)cc(NCCN(C)C)c2c1", "note": "[compound 13, (E)-N^1-(2-(3,4-Dimethoxystyryl)-6-methoxyquinolin-4-yl)-N^2,N^2-dimethylethane-1,2-diamine]", "values": [{"measurement": "resistance index (RI)", "setting": "[2]", "value": "≥ 1.5"}]}
{"compound": "Cc1cc(NCCN(C)C)c2cc(Cl)ccc2n1", "note": "[6c, N^1-(6-Chloro-2-methylquinolin-4-yl)-N^2,N^2-dimethylethane-1,2-diamine]", "values": [{"measurement": "activity against the Dd2 strain", "setting": "[2]", "value": "inactive"}]}
{"compound": "Clc1ccc2nc(/C=C/c3ccncc3)cc(NCCCCN3CCOCC3)c2c1", "note": "[compound 93, (E)-6-Chloro-N-(4-morpholinobutyl)-2-(2-(pyridin-4-yl)vinyl)-quinolin-4-amine]", "values": [{"measurement": "fold improved potency compared with counterpart 82", "setting": "[2]; Dd2", "value": "~13", "unit": "fold"}, {"measurement": "EC50", "setting": "[2]", "value": "≤ 15", "unit": "nM"}, {"measurement": "metabolites / metabolic pathway identified by LC–MS", "setting": "[4]", "value": "breakage of the morpholine ring"}]}
{"compound": "Fc1ccc(/C=C/c2cc(NCCCCN3CCOCC3)c3cc(Cl)ccc3n2)cc1F", "note": "[compound 105, (E)-6-Chloro-2-(3,4-difluorostyryl)-N-(4-morpholinobutyl)-quinolin-4-amine]", "values": [{"measurement": "fold more active than 103", "setting": "[2]; Dd2", "value": "~7", "unit": "fold"}, {"measurement": "metabolites / metabolic pathway identified by LC–MS", "setting": "[4]", "value": "breakage of the morpholine ring"}]}
{"compound": "(E)-4-(6-Chloro-2-(4-isocyanostyryl)quinolin-4-yl)morpholine [compound 64]", "values": [{"measurement": "EC50", "setting": "[2]", "value": "> 1000", "unit": "nM"}]}
{"compound": "COc1ccc2nc(C)cc(NCCN(C)C)c2c1", "note": "[6a, N^1-(6-Methoxy-2-methylquinolin-4-yl)-N^2,N^2-dimethylethane-1,2-diamine]", "values": [{"measurement": "activity against the Dd2 strain", "setting": "[2]", "value": "inactive"}]}
{"compound": "Cc1cc(NCCCCN(C)C)c2cc(Cl)ccc2n1", "note": "[6e, N^1-(6-Chloro-2-methylquinolin-4-yl)-N^4,N^4-dimethylbutane-1,4-diamine]", "values": [{"measurement": "activity against the Dd2 strain", "setting": "[2]", "value": "inactive"}]}
